The values below come from patent publication US10066159B2, “Composite nanoparticles including a phthalic acid derivative” (3M INNOVATIVE PROPERTIES COMPANY, priority 2013, dated 2018).

This data set is described as follows: Solubility in toluene. The format is physicochemical. The conditions noted are these: based on a total weight of the solution.

With `CCCCCCOc1ccc(C(=O)O)c(C(=O)O)c1` [Example 1, 4-hexyloxyphthalic Acid], the solubility in toluene result was “greater than 1 weight percent”. To `CCCCCCCCOc1cc(C(=O)O)c(C(=O)O)cc1OCCCCCCCC` [Example 2, 4,5-dioctyloxyphthalic Acid] belongs “greater than 1 weight percent”.
